How the values were obtained:
Type in all cases: cell-based, human
HIV-1-infected T cells = experiment: Annexin V / DEVD-FITC / p24 cell death assay in T cells with or without HIV-1 infection
Method: Naïve T cells, activated T cells, CMT or EMT with or without infection with HIV-1 (NL4-3, 1 MOI) were cultured for 4 days in the presence of 30 nM CCL19 and 0.3 ng/ml IL-2 for 4 days to establish latent HIV infection. […] The cells were then incubated with 1 μM FITC-DEVD-FMK (Biovision), followed by staining with APC-Annexin V (Biolegend) and intracellular staining with PE-anti-HIV p24. The cells were analyzed by flow cytometry. The percentage of cell death was calculated by the loss of live cells negative for annexin V and DEVD staining by comparing treated and untreated groups: (untreated—treated)/untreated x 100%.

[1] = tested on: CD4+ T cells with or without infection by HIV-1; experiment: Western blot of caspases, Bcl-2 family and LC3 after IDB
Method: Western blot. PBMC CD4^+ T cells with or without infection by HIV-1 cultured for 4 days with CCL19 as in FIG. 1a. The cells were then cultured in the absence or presence of 0.1 μM IDB for 24 h. The cells were lysed in lysis buffer containing 50 mM HEPES, pH 7.5, 150 mM NaCl, 1 mM EDTA, 1% Triton X-100, 1X protease inhibitor mixture (Roche Applied Science) and 10 μM Benzyloxycarbonyl-Val-Ala-Asp (OMe) fluoromethylketone (zVAD-FMK, ENZO Life Sciences). The cell lysates were determined by the Bradford assay (Bio-Rad). Samples were used for SDS-PAGE and Western blot analyses by probing with different antibodies: monoclonal antibodies to caspase-9 (1:1,000, M054-3, clone 5B4) and caspase-7 (1:1,000, M053-3, clone 4G2) from Medical & Biological Laboratories; polyclonal rabbit antibodies to Atg-7 (1:1,000, 2631S), cleaved caspase-9 (1:1,000, 52873s), caspase-3 (1:1,000, 9665s); cleaved caspase-3 (1:1,000, 9501s), caspase-6 (1:1,000, 9762s), Mc1-1 (1:1,000, 5453s), Bcl-2 (1:1,000, 4223s), Bcl-xL (1:1,000, 2762s), Bak (1:1,000, 12105s), Bax (1:1,000, 2772s), LC3 (1:1000, 4108s) from Cell Signaling Technology and monoclonal antibody to β-Actin (1:50,000, sc-47778, clone C4) from Santa Cruz Biotechnology. The blots were them incubated with HRP-conjugated goat anti-Mouse IgG1 (1:50,000, 1070-05, Southern Biotech) or HRP-conjugated goat anti-Rabbit IgG (1:50,000, ab6721, Abcam) and developed using SuperSignal West Dura Extended Duration Substrate (ThermoFisher).

[2] = tested on: PBMCs from HIV-1-infected patients; experiment: In vitro treatment of PBMCs from HIV-1-infected patients, HIV-1 mRNA by RT-PCR; details: outpatients undergoing ART, no active virus production
Method: Quantification of HIV-1 mRNA and DNA. HIV-1 mRNA was measured by RT-PCR similar to the described protocols. LTR-GAG was amplified with forward primer (LTR-GAG-AF), 5′-[…]-3′ (SEQ. ID NO. 9) and reverse primer (LTR-GAG-AR), 5′-[…] […]-3′ (SEQ. ID NO. 10), and detected with the LTR-GAG probe, SHEX/[…]/ZEN /[…]/3IABkFQ (SEQ. ID NO. 11). HIV-1 pol-1 was amplified with POL-1 forward primer (POL-1-AF), 5′-[…]-3′ (SEQ. ID NO. 12) and reverse primer (POL-1-AR), 5′-[…]-3′ (SEQ. ID NO. 13), and detected with the pol-1 probe FAM/[…]/ZEN/[…]/3IABKFQ (SEQ. ID NO. 14) in iTaq Universal Probes Supermix (Bio-Rad). The reaction was carried out by iTaq Universal Probes Supermix (Bio-Rad) with a QuantStudio 5 Real-Time PCR System and analyzed with the QuantStudio Design and Analysis Software (Applied Biosystem). Cycle threshold (Ct) values were calibrated using standard curve generated with the standard samples with known amounts of viral copies.
Treatment of PBMCs from HIV-1-infected patients. PBMCs from HIV-1 patients were resuspended in RPMI complete medium containing and 0.3 ng/ml IL-2 and 50 ng/ml M-CSF and cultured with 0.2 μM BMS-626529, 0.2 μM raltegravir, 25 nM IDB, 20 nM ABT-263, 0.1 μM SAR405 and 0.25 μM JQ1 for 2 days as one cycle of treatments. The cells were then washed and cultures in the same medium for next cycle of culture. […]

[3] = HIV-1-infected T cells, IDB 24 h

For `CC1=C[C@]23C(=O)[C@@H](C=C(COC(=O)c4ccccc4)[C@@H](O)[C@]2(O)[C@H]1OC(=O)c1ccccc1)[C@H]1[C@@H](C[C@H]3C)C1(C)C` [IDB, ingenol 3,20-dibenzoate], the “cell death in HIV-1-infected T cells (Annexin V, cleavage of DEVD)” value (HIV-1-infected T cells; 0.1 μM IDB, 48 h) was “induced cell death in HIV-1-infected T cells”, the “cell death in uninfected cells” value (HIV-1-infected T cells; 0.1 μM IDB, 48 h) was “relatively resistant” and the “caspase-3 activities measured by cleavage of DEVD” value (HIV-1-infected T cells; HIV-1-infected CMT, 100 nM IDB 24 h) was “increased caspase-3 activities”. For the same compound, the “cell death in HIV-1-infected CMT, Annexin V staining” value (HIV-1-infected T cells; NL4-3 1 MOI, 100 nM IDB 24 h) was “induced cell death”, the “expression of anti-apoptotic Bcl-xL and Mcl-1” value ([1]; CD4+ T cells not infected with HIV-1, IDB 24 h) was “increased the expression” and the “activation of caspase-9, caspase-3, caspase-6 and caspase-7” value [1, 3] was “induced the activation”. The “expression of Bcl-xL and Mcl-1” value [1, 3] was “induced the expression of Bcl-xL and Mcl-1”, the “expression of anti-apoptotic Bcl-2” value ([1]; IDB 24 h) was “did not change” and the “expression of LC3” value ([1]; T cell with or without HIV-1 infections, IDB 24 h) was “induced the expression of LC3”. The “increase in Bcl-xL expression in HIV-1-infected cells” value ([1]; compared with uninfected controls, IDB 24 h) was “greater than in uninfected controls” and the “HIV-1 detection in PBMCs after stimulation with IDB” value [2] was “could be detected”.
